These results are taken from the METLIN SMRT retention time set (Domingo-Almenara et al. 2019).

The data set is described as follows: gradient 5% acetonitrile 3 min, to 50% in 2 min, to 85% in 15 min, held 3 min, 100 µL/min. The settings on record: column: Zorbax Extend-C18 2.1 x 50 mm; eluents: water / acetonitrile, 0.1% formic acid. In a few lines:
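Data were gathered over 3 months by HPLC coupled to a quadrupole time-of-flight mass spectrometer, operated in positive and negative ionization mode. Mixtures of ~100 pure standards ran on a Zorbax Extend-C18 column (2.1 × 50 mm, 1.8 μm) at 100 μL/min, with water and acetonitrile each containing 0.1% formic acid and dead and dwell volumes of 40 μL and 900 μL. Retention time was read from adduct peaks picked by computer and checked manually.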
The molecule `COc1ccc(NC(=O)C2CC(=O)N(CCc3c[nH]c4ccc(F)cc34)C2)c(OC)c1` (stereo not given) displayed an RP-LC retention time of 793 s.

`COc1cc2nccc(Oc3ccc(NC(=O)NC4CC4)c(Cl)c3)c2cc1C(N)=O` gave an RP-LC retention time of 633 s.

On to `CCc1ccc(C2=C(C)C(N3CCC(NC(=O)CCOC)CC3)=NS2(=O)=O)cc1`, for which the RP-LC retention time was 761 s.

Molecule `O=C(NCC(O)(c1ccccc1)C(F)(F)F)c1cnccn1` (stereo not given) registered an RP-LC retention time of 710 s.

Consider `Cn1nc(-c2nnc(-c3ccc(F)cc3)o2)c2c1CCN(S(=O)(=O)c1cccc3cccnc13)C2`, for which the RP-LC retention time was determined as 882 s.

Molecule `CC(C)OC(=O)CCC/C=C\C[C@@H]1[C@@H](CC[C@@H](O)CCc2ccccc2)[C@H](O)C[C@@H]1O` displayed an RP-LC retention time of 1020 s.

As for `COc1ccc(CNC(=O)Cc2cn(C)c3ncccc23)c(OC)c1`, the RP-LC retention time worked out at 676 s.

In turn, `COc1ccc2c(c1)C1(CCN(S(=O)(=O)c3cc(F)ccc3C)C1)C(=O)N2` (stereo not given) showed an RP-LC retention time of 857 s.

As for `Cc1cc(NC(=O)Cn2c(=O)oc3ccccc32)n(-c2nc3c(F)cccc3s2)n1`, the RP-LC retention time was determined as 1040 s.

As for `O=C(NCC1CCCO1)C1c2ccccc2C(=O)N1Cc1ccc2c(c1)OCO2` (stereo not given), the RP-LC retention time is 728 s.

The molecule `Cc1ccc(Cl)cc1N1C(=O)CN(S(C)(=O)=O)CC1(C)C(=O)NC1CCCCCC1` (stereo not given) registered an RP-LC retention time of 942 s.

With `CC(C)c1ccc(NC(=O)C2(C)CCCCC(=O)N2)cc1` (stereo not given), the RP-LC retention time stood at 786 s.

The molecule `CCCNC(=O)C1CCCN(c2ccc(SCC(=O)Nc3cccc(F)c3)nn2)C1` (stereo not given) had an RP-LC retention time of 670 s.

The molecule `O=C1[C@H]2CN(Cc3ccccc3Cl)C[C@H]2C(=O)N1Cc1ccc2c(c1)OCO2` had an RP-LC retention time of 930 s.

`CCN1CCN(CCCNC(=O)Cn2c(-c3cccs3)cc3ccccc32)CC1` showed an RP-LC retention time of 722 s.

In turn, `COc1ccccc1-c1noc(-c2nnn3c2COC(c2ccc(Cl)cc2)C3)n1` (stereo not given) yielded an RP-LC retention time of 1220 s.

`O=C(Nc1cccc(F)c1)C1CCCN(c2nnc3ccc(Cl)cn23)C1` (stereo not given) gave an RP-LC retention time of 806 s.

As for `CCCCn1cc(S(=O)(=O)Nc2ccc(F)c(F)c2)c2cccnc21`, the RP-LC retention time was found to be 966 s.

In the case of `CSc1ccc(-c2nc3ncccn3c2Nc2cc(C)ccc2C)cc1`, the RP-LC retention time is 864 s.

`CN1C(=O)c2cc(C(=O)Nc3cccc(Cl)c3)nn2CC1(C)C(=O)NC1CCCCC1` (stereo not given) yielded an RP-LC retention time of 860 s.

`O=C(c1ccccc1)N1CCN(c2nnc3ccccn23)CC1` came in with an RP-LC retention time of 608 s.

In the case of `Cc1ccc(NC(=O)C2CCCN(c3cn[nH]c(=O)c3)C2)cc1` (stereo not given), the RP-LC retention time amounted to 679 s.

The molecule `Cc1[nH]nc(-c2ccc(S(=O)(=O)NC(C)C)o2)c1C` gave an RP-LC retention time of 729 s.

The molecule `O=C(c1ccccc1)N1CCC(C(=O)N2CCc3ccccc32)CC1` registered an RP-LC retention time of 750 s.

`O=C(Nc1ccc(OC(F)(F)F)cc1)C1CCCN(c2ccc(=O)n(-c3cccc(Cl)c3)n2)C1` (stereo not given) had an RP-LC retention time of 1090 s.

With `Cc1cc(C)c(NC(=O)Cn2nc(N3CCCC(C)C3)c3ccccc3c2=O)c(C)c1` (stereo not given), the RP-LC retention time worked out at 1180 s.

Consider `CC(=O)N1CCc2cc(N3CC(C(=O)Nc4ccc(Cl)cc4C)CC3=O)ccc21` (stereo not given), for which the RP-LC retention time is 735 s.

Take `COc1cc(-c2nnc(SCC(=O)N3CCCC(C)C3)o2)cc(OC)c1OC` (stereo not given): the RP-LC retention time turned out to be 889 s.

`COc1ccc(CNC(=O)C2CCCN(c3cnc4nccnc4c3)C2)cc1OC` (stereo not given): the RP-LC retention time turned out to be 710 s.

In turn, `Cc1noc(C)c1S(=O)(=O)NCC1CCN(C(=O)c2cccn(C)c2=O)CC1` gave an RP-LC retention time of 599 s.

With `O=c1c2ccccc2c(-c2nc(-c3ccncc3)no2)cn1-c1ccccc1`, the RP-LC retention time is 1050 s.

`Cn1cc(CCN2CCC(C(=O)NCc3ccc(F)cc3Cl)CC2)c2cccnc21` came in with an RP-LC retention time of 640 s.

`COc1ccc2c(c1)c(CN1CCC(C(=O)NCCN3CCN(C)CC3)CC1)cn2C` returned an RP-LC retention time of 564 s.

Regarding `COc1ccc(NC(=O)N2CCC(CC(=O)N3CCCCC3)CC2)cc1`, the RP-LC retention time came to 706 s.

In turn, `O=C(c1cn2nc(Cl)ccc2n1)N(Cc1ccccc1)Cc1ccco1` had an RP-LC retention time of 974 s.

Turning to `Cn1nccc1-c1cccc(-c2noc(-c3ccsc3)n2)c1`, the RP-LC retention time is 1020 s.

`COc1cc2c(cc1NC(=O)c1cccs1)n(C)c(=O)n2C` registered an RP-LC retention time of 717 s.

Turning to `CCOC(=O)c1[nH]c(C)c(CN(Cc2ccco2)C(=O)Nc2ccccc2)c1C`, the RP-LC retention time was 957 s.

Take `O=C(Cc1csc2nc(-c3cccc(Br)c3)cn12)NCc1ccc(F)cc1`: the RP-LC retention time worked out at 909 s.

`C=CCN1C(=O)COc2ccc(-c3nc(NC(=O)c4ccccc4)sc3C)cc21` yielded an RP-LC retention time of 1040 s.

`CCN1CCN(CCNC(=O)c2cccn2-c2nnc(N3CCCCCC3)s2)CC1` returned an RP-LC retention time of 600 s.

As to `CCOc1ccccc1CN1CCc2nc(N3CCN(c4ncccn4)CC3)ncc2C1`, the RP-LC retention time came to 672 s.

Molecule `O=C(c1ccco1)N1CCCC(Nc2ncnc3c2CCC3)C1` (stereo not given) yielded an RP-LC retention time of 570 s.

As to `CCc1ccc(NC(=O)N2CCC(n3cnnc3C3CC3)C2)cc1` (stereo not given), the RP-LC retention time was determined as 665 s.

Regarding `CCCNC(=O)C1CCCN(c2nc3ncn(CC(=O)Nc4cc(F)ccc4F)c(=O)c3s2)C1` (stereo not given), the RP-LC retention time came to 716 s.

As to `CC1(C)CC(=O)c2cn(-c3ccc(F)cc3)c(=O)c(C(=O)N3CCOCC3)c2C1`, the RP-LC retention time came to 695 s.

The molecule `Cc1cc2c(=O)n(CC(=O)Nc3ccc(F)cc3C)ccc2s1` had an RP-LC retention time of 762 s.

The molecule `Cc1nccn1C1CN(C(=O)C2CCCCC2)C1` yielded an RP-LC retention time of 572 s.

Take `O=C(CCn1c(N2CCCC2)nc2ccsc2c1=O)NCc1ccccc1F`: the RP-LC retention time was 748 s.

Regarding `COc1ccc(-c2nc(-c3ccc(S(=O)(=O)N4CCC(C)CC4)cc3)no2)cc1`, the RP-LC retention time turned out to be 1340 s.

On to `COc1ccc(C(=O)Nc2c(-c3ccccc3)nc3ccccn23)c(OC)c1`, for which the RP-LC retention time came out at 664 s.

`O=c1c2cc(-c3cccs3)nn2cnn1Cc1nc(-c2ccc(OCc3ccccc3)cc2)no1` returned an RP-LC retention time of 1220 s.

As for `Cc1ccc(CNC(=O)Cn2nc(N3CCCCCC3)c3ccccc3c2=O)cc1`, the RP-LC retention time came to 1100 s.

The molecule `Cc1nc(CNC(=O)C2CCN(C(=O)Nc3cccc(Br)c3)CC2)cs1` registered an RP-LC retention time of 707 s.

For the molecule `Cc1cccc(-c2noc(CCn3nc(-c4ccc5c(c4)OCO5)ccc3=O)n2)c1`, the RP-LC retention time is 976 s.

Molecule `O=C(c1cccs1)N1CCc2c([nH]c3ccccc23)C1c1ccc(Cl)cc1` (stereo not given) had an RP-LC retention time of 1220 s.

`CC(=O)N1CCC2(CC1)OC(=O)C(C)=C2C(=O)NCc1ccccc1Br` showed an RP-LC retention time of 721 s.

`CCOc1ccccc1-c1noc(-c2cn(C)c3ccc(F)cc3c2=O)n1` gave an RP-LC retention time of 833 s.

On to `c1ccc2c(N3CCCC3)nnc(-c3nc(C4CC4)no3)c2c1`, for which the RP-LC retention time came to 649 s.

In the case of `O=C(OCCCNc1nc(-c2ccc(Cl)cc2)nc2ccccc12)c1cccs1`, the RP-LC retention time turned out to be 804 s.

For the molecule `CCOC(=O)c1[nH]c(C(=O)O)c(OC(=O)CC)c1C`, the RP-LC retention time turned out to be 912 s.

`Cc1noc(C)c1CCNC(=O)c1cn2ccccc2n1` had an RP-LC retention time of 593 s.

The molecule `Cc1nn2c(CNC(=O)Cc3cccc(C(F)(F)F)c3)c(C)nc2s1` yielded an RP-LC retention time of 679 s.

`Cc1ccc2c(=O)c3c([nH]c2c1C)CCN(CC(=O)Nc1ccc(F)cc1)C3`: the RP-LC retention time worked out at 626 s.

With `CSc1cccc(NC(=O)N2CCc3nc(CNC(=O)C4CCC4)n(C)c3C2)c1`, the RP-LC retention time turned out to be 632 s.

The molecule `CN1C(=O)CSc2cnn(CC(=O)NC3CCCC3)c(=O)c21` returned an RP-LC retention time of 637 s.

`O=S(=O)(NCc1cccnc1)c1ccc(Cl)c(-c2nnc(-c3ccccc3)o2)c1` came in with an RP-LC retention time of 707 s.

Consider `CCN(CC)C(=O)N1CC(Oc2ccc(-c3noc(COC)n3)cc2)C1`, for which the RP-LC retention time is 845 s.

The molecule `O=C1CC(c2noc(CCc3ccccc3)n2)CN1c1ccc(F)c(Cl)c1` (stereo not given) yielded an RP-LC retention time of 1050 s.

The molecule `CCNC(=O)C1CCCN(c2nc3ncn(CC(=O)Nc4ccccc4Cl)c(=O)c3s2)C1` (stereo not given) showed an RP-LC retention time of 664 s.

`CC1CN2C=NC(N3CCN(C(=O)Nc4ccc(C(F)(F)F)cc4)CC3)=CC2=N1` (stereo not given): the RP-LC retention time amounted to 687 s.

Regarding `O=C1NC2(CCN(C(=O)NCCc3ccccc3)CC2)Nc2cc(Cl)ccc21`, the RP-LC retention time worked out at 766 s.

`CC(C)c1noc(COC2CCCN(C(=O)NCc3ccccc3)C2)n1` (stereo not given) displayed an RP-LC retention time of 780 s.

As to `CCCCNC(=O)COc1c(C)cc(Br)cc1C`, the RP-LC retention time was determined as 1000 s.

Molecule `CCOC(=O)c1ccccc1NC(=O)N1CCSc2nc(C)cc(C)c21` displayed an RP-LC retention time of 1000 s.

`C#CCNc1ccc(C(=O)OCC)cc1` showed an RP-LC retention time of 879 s.

`O=C(c1csc(N2CCN(c3ccc(Cl)cc3)CC2)n1)N1CCOCC1` came in with an RP-LC retention time of 942 s.

`N#Cc1ccc(NC(=O)C2CCCN(S(=O)(=O)c3cc(-c4noc(C5CCC5)n4)cs3)C2)cc1` (stereo not given) yielded an RP-LC retention time of 1120 s.

For the molecule `CCn1cc(CCNC(=O)c2ccccc2C(F)(F)F)c2cccnc21`, the RP-LC retention time worked out at 740 s.

Molecule `Cc1ccc2cc(CCC(=O)N3CCN(C4CCCCC4)CC3)c(=O)[nH]c2c1` displayed an RP-LC retention time of 610 s.
